According to patent US5691372A, “Oxygenated-Heterocycle containing sulfonamide inhibitors of aspartyl protease” (Vertex Pharmaceuticals Incorporated, priority 1995, dated 1997):

Tests used:
HIV-1 protease = HIV-1 protease (Human immunodeficiency virus type 1 group M subtype B, UniProt P04585); assay: inhibition constants against HIV-1 protease (method of Pennington et al.); assay type: biochemical
Excerpt: We have measured the inhibition constants of each compound against HIV-1 protease using the method described essentially by M. W. Pennington et al., Peptides 1990, Gimet, E. and D. Andrew, Eds., Escom; Leiden, Netherlands (1990).
We measured the inhibition constants of the compounds listed in Table II against HIV-1 protease using the above-cited method of Pennington et al.

[1] = system: HIVIIIb in CCRM-CEM cells; assay: anti-viral potency in CCRM-CEM cells acutely infected with HIVIIIb, extracellular p24 antigen (method of Meek et al.); assay type: cell-based, HIV-1; CD4+ human T-cell lymphoma cells; conditions: Human immunodeficiency virus 1
Description: Compounds of formula I were tested for their antiviral potency in several virological assays. In the first assay, the compounds were added as a solution in dimethylsulfoxide (DMSO) to a test cell culture of CCRM-CEM cells, a strain of CD4^+ human T-cell lymphoma cells, previously acutely infected with […] using standard protocols (see Meek, T. D. et al., "Inhibition of HIV-1 protease in infected T-lymphocytes by synthetic peptide analogues", Nature, 343, p. 90 (1990). Preferred compounds are those which are able to inhibit 90% of viral infectivity at a concentration of 1 μM or less. More preferred compounds are those which are able to inhibit 90% of viral infectivity at a concentration of 100 nM or less. The effect of the compounds on inhibiting the replication of the virus was measured by determining the HIV extracellular p24 antigen concentration using a commercial enzyme immunoassay (obtained from Coulter Corporation, Hialeah, Fla.). […] Ki and IC90 values are expressed in nM. The designation "ND" is used where a given compound was not tested.

Structure (SMILES) | Ki (HIV-1 protease) [nM] | IC90 [1] [nM]
CC(C)CN(C[C@@H](O)[C@H](Cc1ccccc1)NC(=O)OC1COC2OCCCC12)S(=O)(=O)c1cccc(N)c1 (single isomer, unassigned) [Compound 9] | 0.1 | 
CC(C)CN(C[C@@H](O)[C@H](Cc1ccccc1)NC(=O)OC1COCOC1)S(=O)(=O)c1cccc(N)c1 [Compound 5, 3-Amino-N-((2 syn, 3S)-2-hydroxy-4-phenyl-3-1,3-dioxan-5-yl-oxycarbonylamino)butyl-N-isobutyl-benzenesulfonamide] | 0.15 | 7
COc1ccc(S(=O)(=O)N(CC2CCCC2)C[C@@H](O)[C@H](Cc2ccccc2)NC(=O)OCC2COCO2)cc1 (stereo partly drawn) [Compound 2, N-Cyclopentylmethyl-N-((2 syn, 3S)-2-hydroxy-4-phenyl-3-(1,3-dioxolan-4-yl-methoxycarbonylamino))butyl-4-methoxy-benzenesulfonamide] | 0.3 | 
CC(C)CN(C[C@@H](O)[C@H](Cc1ccccc1)NC(=O)OC1COCOC1)S(=O)(=O)c1ccc(N)cc1 [Compound 4, 4-Amino-N-((2 syn, 3S)-2-hydroxy-4-phenyl-3-1,3-dioxan-5-yl-oxycarbonylamino)butyl-N-isobutyl-benzenesulfonamide] | 0.3 | 12
CC1(OC(=O)N[C@@H](Cc2ccccc2)[C@H](O)CN(CC2CCCC2)S(=O)(=O)c2cccc(N)c2)CCOC1 (stereo partly drawn) [Compound 15, 3-Amino-N-cyclopentylmethyl-N-((2 syn, 3S)-2-hydroxy-4-phenyl-3-(3-methyltetrahydrofuran-3-yl)oxycarbonylamino)butyl-benzenesulfonamide] | 0.4 | 
Nc1ccc(S(=O)(=O)N(CC2CCCC2)C[C@@H](O)[C@H](Cc2ccccc2)NC(=O)OC2COCOC2)cc1 [Compound 3, 4-Amino-N-cyclopentylmethyl-N-((2 syn, 3S)-2-hydroxy-4-phenyl-3-(1,3-dioxan-5-yl-oxycarbonylamino))butyl-benzenesulfonamide] | 0.1 | 4
CC(=O)Nc1ccc(S(=O)(=O)N(C)C[C@@H](O)[C@H](Cc2ccccc2)NC(=O)OC2COC3OCCCC23)cc1 (stereo partly drawn) [Compound 11, 4-Acetamido-N-((2 syn, 3S)-2-hydroxy-4-phenyl-3-tetrahydropyrano-[2,3-b]tetrahydrofuran-4-yloxycarbonylamino)butyl-N-methyl-benzenesulfonamide] | 160 | 
CC(C)C[C@H](NC(=O)OC1COC2OCCCC12)[C@H](O)CN(CC1CCCCC1)S(=O)(=O)c1cccc(N)c1 (stereo partly shown) [Compound 12] | 1.5 | 
CC(C)CN(C[C@@H](O)[C@H](Cc1ccccc1)NC(=O)OC1(C)CCOC1)S(=O)(=O)c1cccc(N)c1 (stereo partly drawn) [Compound 16, 3-Amino-N-((2 syn, 3S)-2-hydroxy-4-phenyl-3-(3-methyltetrahydrofuran-3-yl)oxycarbonylamino)butyl-N-isobutyl-benzenesulfonamide] | 1.5 | 

Second part, the compound after the results:

Ki (HIV-1 protease) [nM] | IC90 [1] [nM] | Structure (SMILES)
< 0.1 |  | CC(C)CN(C[C@@H](O)[C@H](Cc1ccccc1)NC(=O)OC1COC2OCCCC12)S(=O)(=O)c1cccc(N)c1 (single isomer, unassigned) [Compound 10]
< 0.1 | 5 | COc1ccc(S(=O)(=O)N(CC2CCCC2)C[C@@H](O)[C@H](Cc2ccccc2)NC(=O)OC2COCOC2)cc1 [Compound 1, N-Cyclopentylmethyl-N-((2 syn, 3S)-2-hydroxy-4-phenyl-3-(1,3-dioxan-5-yl-oxycarbonylamino))butyl-4-methoxy-benzenesulfonamide]
< 0.1 | 5 | Nc1cccc(S(=O)(=O)N(CC2CCCC2)C[C@@H](O)[C@H](Cc2ccccc2)NC(=O)OC2COCOC2)c1 [Compound 6, 3-Amino-N-cyclopentylmethyl-N-((2 syn, 3S)-2-hydroxy-4-phenyl-3-(1,3-dioxan-5-yl-oxycarbonylamino))butyl-benzenesulfonamide]
< 0.1 |  | Nc1cccc(S(=O)(=O)N(CC2CCCC2)C[C@@H](O)[C@H](Cc2ccccc2)NC(=O)OC2COC3OCCCC23)c1 (single isomer, unassigned) [Compound 7]
< 0.1 |  | Nc1cccc(S(=O)(=O)N(CC2CCCC2)C[C@@H](O)[C@H](Cc2ccccc2)NC(=O)OC2COC3OCCCC23)c1 (single isomer, unassigned) [Compound 8]
